# Values of other authors, collected in paper PMC7142633, “Impact of B-Ring Substitution and Acylation with Hydroxy Cinnamic Acids on the Inhibition of Porcine α-Amylase by Anthocyanin-3-Glycosides” (Foods, 2020).
# Target: porcine pancreatic α-amylase
# Parameters: method as in doi:10.1016/j.jff.2015.11.042
# Conditions: cited from earlier work
structure (smiles),measurement,value
"COc1cc(-c2[o+]c3cc(O)cc(O)c3cc2O[C@@H]2O[C@H](CO)[C@@H](O)[C@H](O)[C@H]2O)ccc1O [Peo-glc, peonidin-3-glucoside]",IC50,75 ± 7 µM
same,inhibition type,competitive inhibition type
